Assay results from paper PMC6588613, “Lupin (Lupinus spp.) seeds exert anthelmintic activity associated with their alkaloid content” (Scientific Reports, 2019).
Converted amounts (≈) assume the structure as drawn. Like-named read-outs stand apart in the source and are kept apart here.

Key:
[1] = target: C. elegans nicotine-sensitive AChR (Cel-N-AChR, acr-16) (Caenorhabditis elegans, UniProt P48180); assay: Xenopus laevis oocyte two-electrode voltage-clamp, Cel-N-AChR; assay type: cell-based
Excerpt: (§1) The lupanine and alkaloid extracts from lupin seeds were perfused on defolliculated X. laevis oocytes (Ecocyte Bioscience, Dortmund, Germany) expressing either the C. elegans nicotine-sensitive nAChR subtype (Cel-N-nAChR, encoded by acr-16[53]), or its levamisole-sensitive counterpart (Cel-L-nAChR, encoded by unc-38, unc-63, unc-29, lev-1 and lev-8[53]). In the lack of H. contortus nicotine-sensitive AChR described, the sole levamisole-sensitive nAChR subtype 1 (Hco-L-nAChR1, encoded by unc-29.1, unc-38, unc-63 and acr-8[29]) from H. contortus was also expressed. Expression of recombinant nAChRs was achieved by microinjection of cRNAs into the oocyte cytoplasm and two-electrode voltage-clamp recordings were carried out as previously described.
Acetylcholine was applied first to check for the presence of functional nAChRs and for current normalization in presence of lupanine or alkaloid extracts.
(§2) Dose-response data were modelled as a log-logistic regression with two parameters, i.e. the curve slope and the associated median excitatory (EC50) or inhibitory (IC50) concentration using the drc package v3.0-1[58]. To account for differences in maximal response values, a third parameter was added for electrophysiology data modelling.

[2] = test system: multidrug-resistant H. contortus infective larvae; assay: Automated Larval Migration Assay (ALMA), multidrug-resistant isolate; assay type: cell-based, Haemonchus contortus; settings: 250 µg/mL, ± s.d.
Protocol: (§3) Because of the scarcity of fractionated alkaloidic compounds (2.7 to 12.8 mg), their anthelmintic effect on infective H. contortus larvae was measured using ALMA. This technique relies on larval auto-fluorescence generated through ultraviolet excitation[42],[43]. Every alkaloidic compound was incubated for 4 h at 20 °C with 7,500 H. contortus infective larvae each. Larvae were then passed through a 20 μm sieve and left for a 60 s stabilization time before migration into the spectrofluorimeter cuvette. Cumulative fluorescence resulting from larval migration into the cuvette and correlating the total number of larvae[43] was recorded during 5 min. Each set of experiment was performed in triplicate at a concentration of 250 µg/mL but for compound 2 (150 µg/mL). Levamisole 10 µM was used as a positive control.

[3] = test system: drug-susceptible H. contortus infective larvae; assay: Automated Larval Migration Assay (ALMA), drug-susceptible isolate; assay type: cell-based, Haemonchus contortus; settings: for larval migration as percentage of control larval migration (ALMA): drug-susceptible larvae, 250 µg/mL (compound 2: 150 µg/mL), 4 h, ± s.d.
Excerpt: Parasite material was maintained by the INRA animal parasite nematode collection. Two H. contortus isolates that were. susceptible or resistant to every licensed anthelmintic compound in France (benzimidazoles, levamisole, macrocyclic lactones) were used. […] To establish whether lupin effect was conserved across GIN species, a fully susceptible French T. circumcincta isolate[51] was used. […] For every test, infective larvae were exsheathed with 0.5% hypochlorite solution and rinsed thrice with water before subsequent incubation in 5 mg/mL solutions of either crude maceration, alkaloidic fraction or non-alkaloidic fraction, levamisole (10 µM) or water, for 18 h at 20 °C. At the end of the incubation period, 100 L3 were deposited on migration plates with 20 µm mesh at 38 °C for 2 h as described elsewhere. […] Dose-response assays were run with six control replicates and four replicates by concentration tested (0, 5, 7.5 and 10 mg/mL for E063 alkaloids and 0, 2, 4, 6 and 8 mg/mL for ENERGY alkaloids).
as §3

mammalian nAChRs = settings: cited from earlier work
[4] = test system: fully susceptible French T. circumcincta isolate; assay: microbe, parasite or virus in culture; settings: Teladorsagia circumcincta, read-out: IC50 (ALMA)
[5] = test system: susceptible Teladorsagia circumcincta infective larvae; assay: Larval migration inhibition assay (LMIA), T. circumcincta; assay type: cell-based; settings: lyophilized extracts 5 mg/mL, levamisole 10 µM, read-out: Average inhibitory effect (mean)
Excerpt: The inhibitory potential of each variety was computed as: p=1−No.treatedmigratedlarvae/AverageNo.controlmigratedlarvae

[6] = test system: multidrug-resistant Haemonchus contortus infective larvae; assay: Larval migration inhibition assay (LMIA), multidrug resistant isolate; assay type: cell-based; settings: levamisole 10 µM
[7] = test system: drug-susceptible Haemonchus contortus infective larvae; assay: Larval migration inhibition assay (LMIA), fully susceptible isolate; assay type: cell-based
[8] = test system: multidrug resistant H. contortus isolate; assay: In vitro drug susceptibility of the multidrug resistant isolate (assay not given); assay type: cell-based, Haemonchus contortus
[9] = test system: multidrug resistant H. contortus isolate; assay type: in vivo, Haemonchus contortus; settings: for in vivo Faecal Egg Reduction Test value: 14 days after treatment; for eggs/g 14 days after treatment: before treatment 11400 (levamisole), 1450 (ivermectin)
[10] = test system: fully susceptible H. contortus isolate
[11] = test system: C. elegans levamisole-sensitive AChR (Cel-L-AChR); assay: Xenopus laevis oocyte two-electrode voltage-clamp, Cel-L-AChR; assay type: cell-based, Caenorhabditis elegans
Chain of C. elegans levamisole-sensitive AChR (Cel-L-AChR) (Q27218 32-507): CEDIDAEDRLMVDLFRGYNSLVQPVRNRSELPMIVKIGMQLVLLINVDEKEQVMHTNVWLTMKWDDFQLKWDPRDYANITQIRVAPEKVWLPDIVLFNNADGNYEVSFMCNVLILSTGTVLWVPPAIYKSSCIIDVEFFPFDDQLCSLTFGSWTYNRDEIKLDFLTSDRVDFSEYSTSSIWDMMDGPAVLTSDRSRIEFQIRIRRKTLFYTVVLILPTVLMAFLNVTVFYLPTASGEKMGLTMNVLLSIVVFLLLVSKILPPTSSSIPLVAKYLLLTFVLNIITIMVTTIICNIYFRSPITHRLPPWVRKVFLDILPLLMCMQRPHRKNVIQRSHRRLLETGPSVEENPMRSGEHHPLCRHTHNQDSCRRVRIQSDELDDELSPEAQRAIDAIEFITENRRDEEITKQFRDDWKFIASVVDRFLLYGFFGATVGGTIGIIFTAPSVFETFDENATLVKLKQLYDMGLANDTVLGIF
Chain of C. elegans levamisole-sensitive AChR (Cel-L-AChR) (P48181 27-493, further chain): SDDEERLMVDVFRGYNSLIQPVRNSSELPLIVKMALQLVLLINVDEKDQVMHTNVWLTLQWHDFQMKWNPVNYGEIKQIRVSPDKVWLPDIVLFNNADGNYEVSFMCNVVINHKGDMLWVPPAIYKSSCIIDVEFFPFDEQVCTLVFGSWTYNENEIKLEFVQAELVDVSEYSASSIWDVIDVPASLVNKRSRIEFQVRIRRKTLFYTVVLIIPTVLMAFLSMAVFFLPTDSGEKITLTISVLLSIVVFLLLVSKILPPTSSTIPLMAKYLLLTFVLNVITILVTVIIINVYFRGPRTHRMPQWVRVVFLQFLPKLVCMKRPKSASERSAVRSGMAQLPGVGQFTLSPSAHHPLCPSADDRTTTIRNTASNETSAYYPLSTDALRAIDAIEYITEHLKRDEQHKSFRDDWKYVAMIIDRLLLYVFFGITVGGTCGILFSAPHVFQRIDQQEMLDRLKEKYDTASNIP
Chain of C. elegans levamisole-sensitive AChR (Cel-L-AChR) (Q23022 17-511, further chain): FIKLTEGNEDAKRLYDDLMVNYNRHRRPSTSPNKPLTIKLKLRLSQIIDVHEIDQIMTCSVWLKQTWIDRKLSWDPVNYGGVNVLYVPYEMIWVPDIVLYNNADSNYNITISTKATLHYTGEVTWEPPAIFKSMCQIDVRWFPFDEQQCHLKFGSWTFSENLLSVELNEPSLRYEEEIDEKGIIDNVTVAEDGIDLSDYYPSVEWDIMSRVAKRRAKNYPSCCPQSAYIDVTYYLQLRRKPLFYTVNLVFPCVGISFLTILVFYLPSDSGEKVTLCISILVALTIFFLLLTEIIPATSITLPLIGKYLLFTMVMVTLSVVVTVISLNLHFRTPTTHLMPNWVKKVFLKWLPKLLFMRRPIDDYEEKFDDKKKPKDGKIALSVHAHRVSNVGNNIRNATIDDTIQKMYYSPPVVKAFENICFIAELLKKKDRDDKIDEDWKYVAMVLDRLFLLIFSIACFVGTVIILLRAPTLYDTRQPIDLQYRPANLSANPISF
Chain of C. elegans levamisole-sensitive AChR (Cel-L-AChR) (Q9N587 24-502, further chain): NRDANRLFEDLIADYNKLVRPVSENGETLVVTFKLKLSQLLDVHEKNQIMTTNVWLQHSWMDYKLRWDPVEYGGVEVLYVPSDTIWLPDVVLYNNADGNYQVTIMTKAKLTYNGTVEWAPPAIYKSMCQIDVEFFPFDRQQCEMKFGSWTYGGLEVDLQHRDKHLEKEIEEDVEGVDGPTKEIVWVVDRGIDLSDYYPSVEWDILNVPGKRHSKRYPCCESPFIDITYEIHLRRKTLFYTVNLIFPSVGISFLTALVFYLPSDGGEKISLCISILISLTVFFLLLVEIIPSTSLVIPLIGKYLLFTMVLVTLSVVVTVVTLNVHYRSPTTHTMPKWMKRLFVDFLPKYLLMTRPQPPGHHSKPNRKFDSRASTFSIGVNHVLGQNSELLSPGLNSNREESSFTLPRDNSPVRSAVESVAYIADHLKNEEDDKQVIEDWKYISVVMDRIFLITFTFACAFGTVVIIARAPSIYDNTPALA
Chain of C. elegans levamisole-sensitive AChR (Cel-L-AChR) (Q93329 entry or part of it, further chain): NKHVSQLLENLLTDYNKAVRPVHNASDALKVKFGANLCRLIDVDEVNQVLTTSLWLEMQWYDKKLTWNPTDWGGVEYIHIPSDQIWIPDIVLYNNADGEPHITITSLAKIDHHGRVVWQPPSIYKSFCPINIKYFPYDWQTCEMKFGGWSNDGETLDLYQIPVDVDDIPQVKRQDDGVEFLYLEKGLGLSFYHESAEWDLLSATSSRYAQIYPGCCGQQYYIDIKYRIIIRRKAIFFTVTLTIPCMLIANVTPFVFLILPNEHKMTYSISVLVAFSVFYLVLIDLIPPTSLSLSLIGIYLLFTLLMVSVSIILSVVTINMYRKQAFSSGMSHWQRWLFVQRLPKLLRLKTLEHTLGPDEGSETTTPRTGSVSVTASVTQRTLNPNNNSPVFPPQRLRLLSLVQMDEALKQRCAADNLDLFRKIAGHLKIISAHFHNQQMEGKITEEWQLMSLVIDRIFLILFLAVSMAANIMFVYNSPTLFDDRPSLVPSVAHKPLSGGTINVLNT
Excerpt: as §1, §2

[12] = target: H. contortus levamisole-sensitive AChR (Hco-L-AChR-1) (Haemonchus contortus, UniProt A9XX24+D6MYE9+D6MYF3+D6MYF4); assay: Xenopus laevis oocyte two-electrode voltage-clamp, Hco-L-AChR-1; assay type: cell-based
Chain of H. contortus levamisole-sensitive AChR (Hco-L-AChR-1) (D6MYE9 entry or part of it): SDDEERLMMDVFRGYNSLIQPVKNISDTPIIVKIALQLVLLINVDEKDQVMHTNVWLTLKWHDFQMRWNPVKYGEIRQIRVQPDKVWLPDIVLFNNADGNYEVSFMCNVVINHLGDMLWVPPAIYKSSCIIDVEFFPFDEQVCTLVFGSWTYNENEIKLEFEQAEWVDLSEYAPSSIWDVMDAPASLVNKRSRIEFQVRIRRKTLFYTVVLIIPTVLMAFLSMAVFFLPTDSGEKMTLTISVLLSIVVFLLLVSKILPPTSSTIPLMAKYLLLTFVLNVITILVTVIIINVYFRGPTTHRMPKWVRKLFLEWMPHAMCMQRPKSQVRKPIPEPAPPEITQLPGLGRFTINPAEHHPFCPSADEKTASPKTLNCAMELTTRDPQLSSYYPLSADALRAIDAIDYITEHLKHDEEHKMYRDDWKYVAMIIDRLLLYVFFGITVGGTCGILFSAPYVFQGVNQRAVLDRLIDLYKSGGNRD
Chain of H. contortus levamisole-sensitive AChR (Hco-L-AChR-1) (D6MYF4 entry or part of it): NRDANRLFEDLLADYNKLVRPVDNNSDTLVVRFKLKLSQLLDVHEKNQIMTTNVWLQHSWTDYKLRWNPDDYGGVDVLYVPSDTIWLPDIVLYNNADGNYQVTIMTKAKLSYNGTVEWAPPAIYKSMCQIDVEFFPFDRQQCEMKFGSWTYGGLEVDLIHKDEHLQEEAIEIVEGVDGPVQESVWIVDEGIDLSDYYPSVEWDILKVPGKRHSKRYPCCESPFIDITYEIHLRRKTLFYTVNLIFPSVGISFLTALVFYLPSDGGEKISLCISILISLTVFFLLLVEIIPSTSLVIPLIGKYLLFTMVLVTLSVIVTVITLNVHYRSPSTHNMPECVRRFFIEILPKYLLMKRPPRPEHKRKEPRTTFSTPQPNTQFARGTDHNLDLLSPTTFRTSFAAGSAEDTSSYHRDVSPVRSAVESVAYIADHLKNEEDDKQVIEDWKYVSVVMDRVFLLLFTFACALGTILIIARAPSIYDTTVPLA
Chain of H. contortus levamisole-sensitive AChR (Hco-L-AChR-1) (A9XX24 entry or part of it): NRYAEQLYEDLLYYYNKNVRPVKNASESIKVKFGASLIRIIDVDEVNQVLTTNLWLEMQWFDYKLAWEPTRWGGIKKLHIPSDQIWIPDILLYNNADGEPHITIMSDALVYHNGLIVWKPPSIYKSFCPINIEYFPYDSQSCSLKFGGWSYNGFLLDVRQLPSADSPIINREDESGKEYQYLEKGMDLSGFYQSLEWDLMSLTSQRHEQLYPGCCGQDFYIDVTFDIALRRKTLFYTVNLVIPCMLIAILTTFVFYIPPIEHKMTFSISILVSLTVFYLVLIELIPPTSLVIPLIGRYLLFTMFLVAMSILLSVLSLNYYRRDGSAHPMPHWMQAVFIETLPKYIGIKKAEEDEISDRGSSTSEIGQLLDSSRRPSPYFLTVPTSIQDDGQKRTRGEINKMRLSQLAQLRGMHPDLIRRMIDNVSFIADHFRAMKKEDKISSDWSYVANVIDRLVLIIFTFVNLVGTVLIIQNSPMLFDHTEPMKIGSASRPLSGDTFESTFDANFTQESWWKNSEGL
Chain of H. contortus levamisole-sensitive AChR (Hco-L-AChR-1) (D6MYF3 entry or part of it): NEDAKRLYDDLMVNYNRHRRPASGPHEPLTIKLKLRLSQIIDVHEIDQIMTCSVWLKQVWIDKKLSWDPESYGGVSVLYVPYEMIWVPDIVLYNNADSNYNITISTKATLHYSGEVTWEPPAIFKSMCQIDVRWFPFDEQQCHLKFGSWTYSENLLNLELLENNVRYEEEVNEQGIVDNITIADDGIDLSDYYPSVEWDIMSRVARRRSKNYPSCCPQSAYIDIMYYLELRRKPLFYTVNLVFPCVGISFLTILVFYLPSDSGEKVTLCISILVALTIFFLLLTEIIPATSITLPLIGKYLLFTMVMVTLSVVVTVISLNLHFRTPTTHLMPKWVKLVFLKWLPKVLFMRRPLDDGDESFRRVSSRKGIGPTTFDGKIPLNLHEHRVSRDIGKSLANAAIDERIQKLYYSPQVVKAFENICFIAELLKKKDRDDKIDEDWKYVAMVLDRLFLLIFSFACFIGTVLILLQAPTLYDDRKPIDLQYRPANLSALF
Excerpt: as §1, §2

[13] = test system: susceptible control H. contortus; assay: In vitro drug susceptibility of the susceptible control (assay not given); assay type: cell-based; settings: Haemonchus contortus

Chain of C. elegans nicotine-sensitive AChR (Cel-N-AChR, acr-16) (P48180 20-498): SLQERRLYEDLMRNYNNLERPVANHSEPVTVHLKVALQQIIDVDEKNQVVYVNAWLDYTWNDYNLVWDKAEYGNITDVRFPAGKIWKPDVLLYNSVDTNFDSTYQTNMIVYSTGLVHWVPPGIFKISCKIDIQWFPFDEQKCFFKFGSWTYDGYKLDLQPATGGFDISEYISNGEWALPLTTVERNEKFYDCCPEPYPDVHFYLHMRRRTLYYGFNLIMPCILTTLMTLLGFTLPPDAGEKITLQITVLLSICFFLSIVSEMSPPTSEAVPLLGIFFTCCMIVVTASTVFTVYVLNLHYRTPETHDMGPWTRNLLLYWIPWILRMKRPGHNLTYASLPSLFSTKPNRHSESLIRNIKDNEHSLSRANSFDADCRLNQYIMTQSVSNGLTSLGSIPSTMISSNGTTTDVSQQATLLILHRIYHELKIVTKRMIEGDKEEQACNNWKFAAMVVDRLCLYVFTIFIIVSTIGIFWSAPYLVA

With `CC(=O)OCC[N+](C)(C)C` [Acetylcholine, acetylcholine] as the compound, how does the EC50 ([1]; EC50, acetylcholine alone) read?
The EC50 was 21.7 ± 0.9 µM.

And the EC50 ([1]; EC50 of acetylcholine with lupanine (300 µM), in the presence of 300 µM lupanine)?
The EC50 was 80.6 ± 27.5 µM.

What does the source list for `CC=C(C)C(=O)OC1CCN2C[C@@H]3C[C@@H](CN4C(=O)CCC[C@H]34)[C@@H]2C1` (stereo partly shown) [Compound 1, 13-angeloyloxy or 13-tigloyloxy-lupanine]?
larval migration as percentage of control (ALMA) [2]: 62.4%; larval migration as percentage of control larval migration (ALMA) [3]: 53.6%

For `O[C@@]12C[C@@H](CN3CCCC[C@H]31)[C@H]1CCCCN1C2` [Compound 4, 7-hydroxysparteine], which “larval migration as percentage of control larval migration (ALMA)” value [3] is on record?
The value was 76%.

For `CC=C(C)C(=O)O[C@H]1CCN2C(=O)[C@@H]3C[C@@H](CN4C(=O)CCC[C@H]34)[C@@H]2C1` [Compound 5], which “larval migration as percentage of control larval migration (ALMA)” value [3] is on record?
Its value is “did not significantly inhibit”.

For `O=C(OC1CCN2C[C@@H]3C[C@@H](CN4C(=O)CCC[C@H]34)[C@@H]2C1)c1ccccc1` (stereo partly shown) [Compound 6], which “larval migration as percentage of control larval migration (ALMA)” value [3] is on record?
The value was “did not significantly inhibit”.

With `O=c1cccc2n1C[C@@H]1CNC[C@H]2C1` [cytisine] as the compound, how does the IC50 (mammalian nAChRs) read?
The IC50 was 0.14 µM.

Which IC50 [4] does the source give for `c1ccc([C@H]2CN3CCSC3=N2)cc1` [levamisole] here?
The IC50 was 1.79 µM.

And the inhibition at 10 µM [5]?
The inhibition at 10 µM was 73.7%.

And the inhibition at 10 µM ([6]; Haemonchus contortus, H. contortus multidrug resistant, lyophilized extracts 5 mg/mL, read-out: Average inhibitory effect)?
Its inhibition at 10 µM is 30.5%.

And the “Percentage of migrating larvae” value ([6]; multidrug-resistant isolate, fractions 2.5 mg/mL, fractions 1 and 8 0.625 mg/mL, negative control 100)?
The value was 39.7%.

What about the inhibition at 10 µM ([7]; Haemonchus contortus, H. contortus drug susceptible, lyophilized extracts 5 mg/mL, levamisole 10 µM, read-out: Average inhibitory effect) of the same compound?
Its inhibition at 10 µM is 99.5%.

What about the IC50 ([7]; Haemonchus contortus, concentration response assay, susceptible H. contortus isolate) of the same compound?
The IC50 was 1.61 µM.

What about the inhibition at 10 µM ([7]; Haemonchus contortus, susceptible H. contortus L3, levamisole 10 µM, extract 5 mg/mL, estimate ± s.e.m., read-out: mean inhibition of larval migration) of the same compound?
The inhibition at 10 µM was 99.3%.

And the “Percentage of migrating larvae” value ([7]; fully susceptible isolate, fractions 2.5 mg/mL, fractions 1 and 8 0.625 mg/mL, levamisole 10 µM, negative control 100)?
Its value is 12.1%.

What about the EC50 ([3]; Haemonchus contortus, fully susceptible isolate, read-out: in vitro EC50 (Automated Larval Migration inhibition Assay)) of the same compound?
The EC50 was 1.1 µM.

And the EC50 ([8]; Haemonchus contortus)?
Its EC50 is 15.6 µM.

And the “in vivo Faecal Egg Reduction Test value” [9]?
Its value is 31.6%.

What about the “eggs/g 14 days after treatment” value [9] of the same compound?
Its value is 7800 eggs/g.

What about the “Faecal Egg Count reduction in vivo” value [10] of the same compound?
The value was 100%.

For `O=C1CCC[C@@H]2[C@H]3C[C@@H](CN12)[C@@H]1CCCCN1C3` [lupanine], which “decrease in maximal ACh-elicited current” value ([11]; 300 µM lupanine, levamisole-sensitive receptors) is on record?
Its value is 38%.

What about the IC50 ([11]; read-out: IC50 on ACh-elicited currents, Cel-L-AChR, n = 5) of the same compound?
Its IC50 is 549 ± 64.1 µM.

And the “drop-off in the maximum amplitude of ACh-elicited currents” value ([1]; 300 µM lupanine)?
The value was 81%.

What about the IC50 ([1]; n = 5, read-out: IC50 on ACh-elicited currents) of the same compound?
Its IC50 is 116 ± 9.7 µM.

What about the “inhibition of the control migration” value ([7]; concentration response assay, 0 to 3 mM, susceptible isolate, linear, highly variable) of the same compound?
Its value is “less than 25%”.

What about the IC50 (mammalian nAChRs) of the same compound?
Its IC50 is 5 µM.

What about the IC50 ([12]; Hco-L-AChR-1, n = 5, read-out: IC50 on ACh-elicited currents) of the same compound?
The IC50 was 540 ± 90.2 µM.

And the inhibition at 300 µM ([12]; read-out: decrease in maximal ACh-elicited current)?
The inhibition at 300 µM was 38%.

With `CSc1nc2cc(Cl)c(Oc3cccc(Cl)c3Cl)cc2[nH]1` [triclabendazole] as the compound, how does the EC50 [13] read?
Its EC50 is 0.022 µg/mL (≈ 0.0612 µM).

What about the EC50 ([8]; Haemonchus contortus) of the same compound?
Its EC50 is 0.587 µg/mL.

With ivermectin as the compound, how does the EC50 [8] read?
The EC50 was 0.055 µM.

What about the “in vivo Faecal Egg Reduction Test value” [9] of the same compound?
The value was 67.8%.

What about the “eggs/g 14 days after treatment” value [9] of the same compound?
The value was 450 eggs/g.
